Columns and labels:
Format in all cases: in vivo, human
[1] = Phase I clinical study, clinical pharmacology: food effect study (fasting vs postprandial pharmacokinetics)
Procedure: (§1) • Tablets were orally administered in preset dose group of 30 mg, 90 mg, 180 mg, 360 mg, 540 mg or 720 mg, with one treatment cycle every 28 days. Administration was continuous until disease progression or the occurrence of unacceptable toxicity. Tablets were orally administered once daily, within 30 minutes after breakfast each morning, for consecutive administration. If intensive PK blood sampling was scheduled on a given day, the subject was forbidden to drink water 1 h and fasted 4 h before and after drug administration.
There were a total of 9 patients in the food effect study.

[2] = Phase I clinical study, clinical safety (DLT, TEAEs, treatment-related AEs)
Text: • Incidence of dose limiting toxicity (DLT) • MTD (if available) and RP2D;
(§2) • Incidence, severity (graded according to CTCAE v5.0), and correlation with the study drug of adverse events (AEs) and serious adverse events (SAEs), also including abnormalities in vital signs, electrocardiogram, and laboratory tests; • PK parameters of the compound of formula I after single/multiple administrations, including but not limited to: • single administration parameters: peak plasma concentration (Cmax), time to peak (Tmax), area under the concentration-time curve from time zero to the last detectable concentration time point t (AUC0-t), area under the concentration-time curve from time zero to infinity (AUC0-inf) (if applicable), half-life (t1/2) (if applicable), apparent volume of distribution (Vz/F) (if applicable), and apparent clearance (CL/F) (if applicable); • multiple administration parameters: steady-state peak concentration (Cmax, ss), time to peak (Tmax, ss), steady-state trough concentration (Cmin, ss), area under the steady-state plasma concentration-time curve (AUCss), and drug accumulation ratio (Rac). • Pharmacokinetic (PK) of midazolam: pharmacokinetic parameters of midazolam in patients after administration of a microdose of midazolam before (D-1) and after (D15) multiple oral administrations of the compound of formula I, including: Tmax, Cmax, AUC0-t, AUCO-∞, t1/2, CL/F and Vz/F. • Efficacy endpoints: objective response rate (ORR), disease control rate (DCR), duration of response (DoR), radiographic progression-free survival (rPFS), PSA response rate at week 12, proportions of subjects with a decrease in PSA of ≧50% and ≧30% from baseline throughout study treatment, time to PSA progression, and overall survival (OS).
as §1
A total of 26 tumour subjects were enrolled in this study, with 13 subjects in the dose escalation phase. There were 1, 4, 4, 3, and 1 subject(s) in 30 mg, 90 mg, 180 mg, 360 mg, and 540 mg dose groups, respectively. […] One subject was enrolled in the 540 mg dose group and remained in DLT observation, and no dose-limiting toxicity (DLT) was observed. There were 13 subjects in the dose expansion phase, and all were in the 180 mg dose group.

[3] = test system: PSA; assay: Phase I clinical study, clinical effectiveness (PSA response)
Text: as §2, §1
A total of 17 subjects in the study received at least one post-baseline PSA test, with 1, 4, 9, and 3 subjects in 30 mg, 90 mg, 180 mg, and 360 mg dose groups, respectively. 8 of 17 subjects evaluable for PSA response experienced a PSA decrease.

[4] = 180 mg oral administration under fasting conditions, patients with mCRPC
[5] = postprandial absorption compared with fasting state, food effect study

## C[C@H]1CC2(CCN(c3ccc(C(=O)N4CCC(CN5CCN(c6cccc(N[C@H]7CCC(=O)NC7=O)c6)CC5)CC4)cc3F)CC2)CN1c1ccc(C#N)c(Cl)c1 [compound of formula I]
[1]; [4]
  geometric mean (% geometric coefficient of variation) of apparent volume of distribution: 1260 (90.7) L
  geometric mean (% geometric coefficient of variation) of clearance: 21.5 (83.4) L/h
  median time to peak: 3 h
[1]; male, human, plasma, 180 mg oral administration under fasting conditions, patients with mCRPC, food effect study (9 patients), read-out: mean half-life (± standard deviation) (converted)
  half-life: 40.8 ± 4.37 h
[1]; [5]
  AUC, postprandial versus fasting state: 2.54 fold
  Cmax, postprandial versus fasting state: 3.06 fold
[1]; postprandial compared with fasting state
  time to peak delayed (postprandial versus fasting): 3 h
[1]; postprandial state
  time to peak, postprandial: about 6 h
[2]; 8 of 26 subjects
  subjects who experienced AEs associated with formula I: 30.8%
[2]; 9 of 26 tumour subjects enrolled
  subjects who experienced TEAEs: 34.6%
[2]; dose escalation phase, 13 subjects, 30 mg, 90 mg, 180 mg, 360 mg and 540 mg dose groups, oral once daily
  dose-limiting toxicity (DLT): no DLT was observed
[2]; during the study, 26 subjects
  grade 4/5 AE: No grade 4/5 AE occurred
[2]; one of 26 subjects, decreased neutrophil count and decreased white blood cell count
  subjects who experienced grade 3 TRAE: 3.8%
[2]; three of 26 subjects
  subjects who experienced grade 3 TEAEs: 11.5%
[3]; 180 mg dose group, 6 of the 9 subjects
  subjects who experienced a PSA decrease: 66.7%
[3]; 180 mg dose group, 9 subjects
  subjects achieving PSA30 (a reduction in serum PSA level of ≧ 30% from baseline during treatment): 3 subjects
  subjects achieving PSA90 (a reduction in serum PSA level of ≧ 90% from baseline during treatment): 1 subject
[3]; of 17 subjects evaluable for PSA response, 30 mg, 90 mg, 180 mg and 360 mg dose groups
  subjects who experienced a PSA decrease: 8 subjects
